In US8802597B2, “Herbicidal pyrimidines” (E I du Pont de Nemours and Company, priority 2003, dated 2014):

How the values were obtained:
Format in all cases: in vivo
[1] = system: crabgrass (Digitaria sanguinalis); test: Test A pre/postemergence
Method in brief: (§1)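 Soil: loam blended with sand. Formulation: non-phytotoxic solvent mixture with surfactant. Timing: preemergence soil spray plus concurrent postemergence spray (plants 2–10 cm, 1–2 leaves). Readout: visual injury versus untreated controls at ~10 days, 0–100.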

[2] = system: redroot pigweed (Amaranthus retroflexus); test: Test A pre/postemergence
Method in brief: as §1

[3] = system: morningglory (Ipomoea spp.); test: Test A pre/postemergence
Method in brief: as §1

[4] = system: velvetleaf (Abutilon theophrasti); test: Test A pre/postemergence
Method in brief: as §1

[5] = system: barnyardgrass (Echinochloa crus-galli); test: Test A pre/postemergence
Method in brief: as §1

[6] = system: giant foxtail (Setaria faberi); test: Test A pre/postemergence
Method in brief: as §1

[7] = system: transplanted rice seedlings (Oryza sativa cv. ‘Japonica-M202’); test: Test E flooded paddy water application; details: Flood, 21 days, scale 0 to 100 (0 no effect, 100 complete control)
Method in brief: (§2)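 Greenhouse pots of Tama silt loam with weeds and rice at 2.0–2.5-leaf stage, flooded to 3 cm; compounds applied directly into paddy water, depth maintained. Visual rating versus untreated controls after 21 days, 0 (no effect) to 100 (complete control); 29.5/26.7 °C, 16-h photoperiod.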

[8] = system: late watergrass (Echinochloa oryzicola); test: Test E flooded paddy water application; details: Flood, 21 days, scale 0 to 100 (0 no effect, 100 complete control)
Method in brief: as §2

[9] = system: purple redstem (Ammannia coccinea); test: Test E flooded paddy water application; details: Flood, 21 days, scale 0 to 100 (0 no effect, 100 complete control)
Method in brief: as §2

[10] = system: barnyardgrass (Echinochloa crus-galli); test: Test E flooded paddy water application; details: Flood, 21 days, scale 0 to 100 (0 no effect, 100 complete control)
Method in brief: as §2

[11] = system: early watergrass (Echinochloa oryzoides); test: Test E flooded paddy water application; details: Flood, 21 days, scale 0 to 100 (0 no effect, 100 complete control)
Method in brief: as §2

[12] = system: ducksalad (Heteranthera limosa); test: Test E flooded paddy water application; details: Flood, 21 days, scale 0 to 100 (0 no effect, 100 complete control)
Method in brief: as §2

[13] = system: junglerice (Echinochloa colona); test: Test E flooded paddy water application; details: Flood, 21 days, scale 0 to 100 (0 no effect, 100 complete control)
Method in brief: as §2

[14] = system: smallflower umbrella sedge (Cyperus difformis); test: Test E flooded paddy water application; details: Flood, 21 days, scale 0 to 100 (0 no effect, 100 complete control)
Method in brief: as §2

[15] = system: rice flatsedge (Cyperus iria); test: Test E flooded paddy water application; details: Flood, 21 days, scale 0 to 100 (0 no effect, 100 complete control)
Method in brief: as §2

[16] = system: bearded (brdd.) sprangletop (Leptochloa fusca ssp. fascicularis); test: Test E flooded paddy water application; details: Flood, 21 days, scale 0 to 100 (0 no effect, 100 complete control)
Method in brief: as §2

[17] = system: water seeded rice seedlings (Oryza sativa cv. ‘Japonica-M202’); test: Test E flooded paddy water application; details: Flood, 21 days, scale 0 to 100 (0 no effect, 100 complete control)
Method in brief: as §2

[18] = Postemergence, 125 g ai/ha, 0 to 100 scale (0 no effect, 100 complete control)
[19] = Postemergence, 500 g ai/ha, 0 to 100 scale (0 no effect, 100 complete control)
[20] = Preemergence, 125 g ai/ha, 0 to 100 scale where 0 is no effect and 100 is complete control, approximately ten days
[21] = Preemergence, 500 g ai/ha, 0 to 100 scale where 0 is no effect and 100 is complete control, approximately ten days

**Q.** How did the “Plant response rating, Crabgrass” value [1, 18] turn out when `CNc1nc(-c2ccc(Cl)cc2)nc(C(=O)OC)c1Cl` [Compound 111] was run?
**A.** 5

**Q.** And the “Plant response rating, Crabgrass” value [1, 19]?
**A.** 30

**Q.** What about the “Plant response rating, Crabgrass” value [1, 20] of the same compound?
**A.** 0

**Q.** What about the “Plant response rating, Crabgrass” value [1, 21] of the same compound?
**A.** 0

**Q.** And the “Plant response rating, Pigweed” value [2, 18]?
**A.** 55

**Q.** And the “Plant response rating, Pigweed” value [2, 19]?
**A.** 85

**Q.** What about the “Plant response rating, Pigweed” value [2, 20] of the same compound?
**A.** 0

**Q.** What about the “Plant response rating, Pigweed” value [2, 21] of the same compound?
**A.** 0

**Q.** And the “Plant response rating, Morningglory” value [3, 18]?
**A.** 20

**Q.** What about the “Plant response rating, Morningglory” value [3, 19] of the same compound?
**A.** 50

**Q.** What about the “Plant response rating, Morningglory” value [3, 20] of the same compound?
**A.** 0

**Q.** And the “Plant response rating, Morningglory” value [3, 21]?
**A.** 0

**Q.** And the “Plant response rating, Velvetleaf” value [4, 18]?
**A.** 75

**Q.** What about the “Plant response rating, Velvetleaf” value [4, 19] of the same compound?
**A.** 85

**Q.** And the “Plant response rating, Velvetleaf” value [4, 20]?
**A.** 0

**Q.** And the “Plant response rating, Velvetleaf” value [4, 21]?
**A.** 0

**Q.** And the “Plant response rating, Barnyardgrass” value [5, 18]?
**A.** 0

**Q.** What about the “Plant response rating, Barnyardgrass” value [5, 19] of the same compound?
**A.** 10

**Q.** And the “Plant response rating, Barnyardgrass” value [5, 20]?
**A.** 0

**Q.** And the “Plant response rating, Barnyardgrass” value [5, 21]?
**A.** 0

**Q.** And the “Plant response rating, Foxtail, Giant” value [6, 18]?
**A.** 0

**Q.** And the “Plant response rating, Foxtail, Giant” value [6, 19]?
**A.** 0

**Q.** What about the “Plant response rating, Foxtail, Giant” value [6, 20] of the same compound?
**A.** 0

**Q.** What about the “Plant response rating, Foxtail, Giant” value [6, 21] of the same compound?
**A.** 0

**Q.** What about the “Rice, Transplanted plant response rating” value ([7]; 32 g ai/ha) of the same compound?
**A.** 0

**Q.** And the “Rice, Transplanted plant response rating” value ([7]; 64 g ai/ha)?
**A.** 0

**Q.** And the “Rice, Transplanted plant response rating” value ([7]; 125 g ai/ha)?
**A.** 0

**Q.** And the “Rice, Transplanted plant response rating” value ([7]; 250 g ai/ha)?
**A.** 0

**Q.** And the “Plant response rating, Rice, Transplanted” value ([7]; 16 g ai/ha)?
**A.** 0

**Q.** And the “Watergrass, Late plant response rating” value ([8]; 32 g ai/ha)?
**A.** 0

**Q.** And the “Watergrass, Late plant response rating” value ([8]; 64 g ai/ha)?
**A.** 0

**Q.** What about the “Watergrass, Late plant response rating” value ([8]; 125 g ai/ha) of the same compound?
**A.** 0

**Q.** And the “Watergrass, Late plant response rating” value ([8]; 250 g ai/ha)?
**A.** 0

**Q.** And the “Plant response rating, Watergrass, Late” value ([8]; 16 g ai/ha)?
**A.** 0

**Q.** And the “Redstem plant response rating” value ([9]; 32 g ai/ha)?
**A.** 20

**Q.** And the “Redstem plant response rating” value ([9]; 64 g ai/ha)?
**A.** 30

**Q.** What about the “Redstem plant response rating” value ([9]; 125 g ai/ha) of the same compound?
**A.** 30

**Q.** And the “Redstem plant response rating” value ([9]; 250 g ai/ha)?
**A.** 75

**Q.** What about the “Plant response rating, Redstem” value ([9]; 16 g ai/ha) of the same compound?
**A.** 0

**Q.** And the “Barnyardgrass plant response rating” value ([10]; 32 g ai/ha)?
**A.** 0

**Q.** What about the “Barnyardgrass plant response rating” value ([10]; 64 g ai/ha) of the same compound?
**A.** 0

**Q.** What about the “Barnyardgrass plant response rating” value ([10]; 125 g ai/ha) of the same compound?
**A.** 0

**Q.** What about the “Barnyardgrass plant response rating” value ([10]; 250 g ai/ha) of the same compound?
**A.** 0

**Q.** What about the “Plant response rating, Barnyardgrass” value ([10]; 16 g ai/ha) of the same compound?
**A.** 0

**Q.** What about the “Watergrass, Early plant response rating” value ([11]; 32 g ai/ha) of the same compound?
**A.** 0

**Q.** And the “Watergrass, Early plant response rating” value ([11]; 64 g ai/ha)?
**A.** 0

**Q.** And the “Watergrass, Early plant response rating” value ([11]; 125 g ai/ha)?
**A.** 0

**Q.** What about the “Watergrass, Early plant response rating” value ([11]; 250 g ai/ha) of the same compound?
**A.** 0

**Q.** What about the “Plant response rating, Watergrass, Early” value ([11]; 16 g ai/ha) of the same compound?
**A.** 0

**Q.** What about the “Ducksalad plant response rating” value ([12]; 32 g ai/ha) of the same compound?
**A.** 0

**Q.** And the “Ducksalad plant response rating” value ([12]; 64 g ai/ha)?
**A.** 85

**Q.** What about the “Ducksalad plant response rating” value ([12]; 125 g ai/ha) of the same compound?
**A.** 100

**Q.** What about the “Ducksalad plant response rating” value ([12]; 250 g ai/ha) of the same compound?
**A.** 100

**Q.** What about the “Plant response rating, Ducksalad” value ([12]; 16 g ai/ha) of the same compound?
**A.** 0

**Q.** What about the “Junglerice plant response rating” value ([13]; 32 g ai/ha) of the same compound?
**A.** 0

**Q.** And the “Junglerice plant response rating” value ([13]; 64 g ai/ha)?
**A.** 0

**Q.** What about the “Junglerice plant response rating” value ([13]; 125 g ai/ha) of the same compound?
**A.** 0

**Q.** And the “Junglerice plant response rating” value ([13]; 250 g ai/ha)?
**A.** 0

**Q.** What about the “Plant response rating, Junglerice” value ([13]; 16 g ai/ha) of the same compound?
**A.** 0

**Q.** What about the “Sedge, Umbrella plant response rating” value ([14]; 32 g ai/ha) of the same compound?
**A.** 0

**Q.** What about the “Sedge, Umbrella plant response rating” value ([14]; 64 g ai/ha) of the same compound?
**A.** 0

**Q.** What about the “Sedge, Umbrella plant response rating” value ([14]; 125 g ai/ha) of the same compound?
**A.** 0

**Q.** What about the “Sedge, Umbrella plant response rating” value ([14]; 250 g ai/ha) of the same compound?
**A.** 75

**Q.** What about the “Plant response rating, Sedge, Umbrella” value ([14]; 16 g ai/ha) of the same compound?
**A.** 0

**Q.** What about the “Flatsedge, Rice plant response rating” value ([15]; 32 g ai/ha) of the same compound?
**A.** 0

**Q.** What about the “Flatsedge, Rice plant response rating” value ([15]; 64 g ai/ha) of the same compound?
**A.** 0

**Q.** What about the “Flatsedge, Rice plant response rating” value ([15]; 125 g ai/ha) of the same compound?
**A.** 0

**Q.** And the “Flatsedge, Rice plant response rating” value ([15]; 250 g ai/ha)?
**A.** 0

**Q.** And the “Plant response rating, Flatsedge, Rice” value ([15]; 16 g ai/ha)?
**A.** 0

**Q.** What about the “Sprangletop, Brdd. plant response rating” value ([16]; 32 g ai/ha) of the same compound?
**A.** 0

**Q.** What about the “Sprangletop, Brdd. plant response rating” value ([16]; 64 g ai/ha) of the same compound?
**A.** 0

**Q.** And the “Sprangletop, Brdd. plant response rating” value ([16]; 125 g ai/ha)?
**A.** 0

**Q.** What about the “Sprangletop, Brdd. plant response rating” value ([16]; 250 g ai/ha) of the same compound?
**A.** 0

**Q.** What about the “Plant response rating, Sprangletop, Brdd.” value ([16]; 16 g ai/ha) of the same compound?
**A.** 0

**Q.** And the “Rice, Water Seeded plant response rating” value ([17]; 32 g ai/ha)?
**A.** 0

**Q.** And the “Rice, Water Seeded plant response rating” value ([17]; 64 g ai/ha)?
**A.** 0

**Q.** What about the “Rice, Water Seeded plant response rating” value ([17]; 125 g ai/ha) of the same compound?
**A.** 0

**Q.** And the “Rice, Water Seeded plant response rating” value ([17]; 250 g ai/ha)?
**A.** 0

**Q.** And the “Plant response rating, Rice, Water Seeded” value ([17]; 16 g ai/ha)?
**A.** 0
